Assay results from patent publication US12503436B2, “Compounds and compositions for treating conditions associated with STING activity” (NOVARTIS PHARMA AG, priority 2021, dated 2025).

Target: STING (Homo sapiens, UniProt Q86WV6, G230A/H232R/R293Q/R71H)
Assay: STING reporter assay in THP1-Dual KO-IFNAR2 cells (2′3′cGAMP stimulation, luciferase reporter)
Format: cell-based
Conditions: 15 μM 2′3′cGAMP stimulation, 24 h, read-out: Pharmaron, THP1_IFNAR2 STING 24 h Luci Normalized: GeoMean EC50
Method: STING pathway activation by the compounds described herein was measured using THP1-Dual™ cells (KO-IFNAR2).
THP1-Dual™ KO-IFNAR2 Cells (obtained from InvivoGen) were maintained in RPMI, 10% FCS, 5 ml P/S, 2 mM L-glut, 10 mM Hepes, and 1 mM sodium pyruvate. Compounds were spotted in empty 384 well tissue culture plates (Greiner 781182) by Echo for a final concentration of 0.0017-100 μM. Cells were plated into the TC plates at 40 μL per well, 2×10E6 cells/mL. For activation with STING ligand, 2′3′cGAMP (MW 718.38, obtained from Invivogen), was prepared in Optimem media.
The following solutions were prepared for each 1×384 plate: • Solution A: 2 mL Optimem with one of the following stimuli: • 60 μL of 10 mM 2′3′cGAMP→150 μM stock • Solution B: 2 mL Optimem with 60 μL Lipofectamine 2000→Incubate 5 min at RT
2 mL of solution A and 2 ml Solution B was mixed and incubated for 20 min at room temperature (RT). 20 μL of transfection solution (A+B) was added on top of the plated cells, with a final 2′3′cGAMP concentration of 15 μM. The plates were then centrifuged immediately at 340 g for 1 minute, after which they were incubated at 37° C., 5% CO2, >98% humidity for 24 h. Luciferase reporter activity was then measured. EC50 values were calculated by using standard methods known in the art.
Luciferase reporter assay: 10 μL of supernatant from the assay was transferred to white 384-plate with flat bottom and squared wells. One pouch of QUANTI-Luc™ Plus was dissolved in 25 mL of water. 100 μL of QLC Stabilizer per 25 mL of QUANTI-Luc™ Plus solution was added. 50 μL of QUANTI-Luc™ Plus/QLC solution per well was then added. Luminescence was measured on a Platereader (e.g., Spectramax I3X (Molecular Devices GF3637001)).
Luciferase reporter activity was then measured. EC50 values were calculated by using standard methods known in the art.

STING, sequence (Q86WV6 whole entry R71H/G230A/H232R/R293Q): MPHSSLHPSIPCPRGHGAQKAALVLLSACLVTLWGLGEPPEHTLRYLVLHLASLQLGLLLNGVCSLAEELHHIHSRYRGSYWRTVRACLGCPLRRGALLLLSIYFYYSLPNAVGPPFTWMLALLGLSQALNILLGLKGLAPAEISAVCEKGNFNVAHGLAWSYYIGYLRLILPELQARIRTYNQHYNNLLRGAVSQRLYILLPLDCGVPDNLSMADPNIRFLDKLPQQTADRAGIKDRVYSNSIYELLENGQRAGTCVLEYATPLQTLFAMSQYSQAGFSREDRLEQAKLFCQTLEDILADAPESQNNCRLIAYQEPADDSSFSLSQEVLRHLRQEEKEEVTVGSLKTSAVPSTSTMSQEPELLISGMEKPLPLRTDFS

Row | Compound | EC50 [nM]
1 | O=C(Nc1c[nH]c2ccc(/C=C/c3ccc(C(F)(F)F)cc3)cc12)C1CCC1 [Compound 144, (E)-N-(5-(4-(trifluoromethyl)styryl)-1H-indol-3-yl)cyclobutanecarboxamide] | 5000 to 100000
2 | O=C(Nc1c[nH]c2ccc(CCOc3ccc(C(F)(F)F)cc3)cc12)C1CCC1 [Compound 145, N-(5-(2-(4-(trifluoromethyl)phenoxy)ethyl)-1H-indol-3-yl)cyclobutanecarboxamide] | 200 to 1000
3 | CCC(=O)Nc1c[nH]c2ccc(OCCc3ccc(C(F)(F)F)cc3)cc12 [Compound 146, N-(5-(4-(trifluoromethyl)phenethoxy)-1H-indol-3-yl)propionamide] | 40 to 200
4 | O=C(Nc1c[nH]c2ccc(O[C@H]3C[C@H](c4ccc(C(F)(F)F)cc4)C3)cc12)C1CC1 [Compound 147, N-(5-(trans-3-(4-(trifluoromethyl)phenyl)cyclobutoxy)-1H-indol-3-yl)cyclopropanecarboxamide] | 40 to 200
5 | CC1(C(=O)Nc2c[nH]c3ccc(O[C@H]4C[C@H](c5ccc(C(F)(F)F)cc5)C4)cc23)COC1 [Compound 148, 3-methyl-N-(5-(trans-3-(4-(trifluoromethyl)phenyl)cyclobutoxy)-1H-indol-3-yl)oxetane-3-carboxamide] | 200 to 1000
6 | O=C(Nc1c[nH]c2ccc(OCCc3ccc(C(F)(F)F)cc3)cc12)C1CN(CC(F)F)C1 [Compound 149, 1-(2,2-difluoroethyl)-N-(5-(4-(trifluoromethyl)phenethoxy)-1H-indol-3-yl)azetidine-3-carboxamide] | 40 to 200
7 | C[C@H]1C[C@@H](C(=O)Nc2c[nH]c3ccc(OCC[C@@H]4C[C@@H]5CN(CC(F)(F)F)C[C@@H]5C4)cc23)C1 [Compound 150, (1R,3S)—N-(5-{2-[(3aR,5S,6aS)-2-(2,2,2-trifluoroethyl)-octahydrocyclopenta[c]pyrrol-5-yl]ethoxy}-1H-indol-3-yl)-3-methylcyclobutane-1-carboxamide] | 200 to 1000
8 | CC1(F)CC(C(=O)Nc2c[nH]c3ccc(OCC[C@@H]4C[C@@H]5CN(CC(F)(F)F)C[C@@H]5C4)cc23)C1 (stereo partly drawn) [Compound 151, 3-fluoro-3-methyl-N-(5-(2-((3aR,5r,6aS)-2-(2,2,2-trifluoroethyl)octahydrocyclopenta[c]pyrrol-5-yl)ethoxy)-1H-indol-3-yl)cyclobutane-1-carboxamide] | 200 to 1000
9 | O=C(Nc1c[nH]c2ccc(OCC[C@@H]3C[C@@H]4CN(CC(F)(F)F)C[C@@H]4C3)cc12)C1CCOCC1 [Compound 152, N-(5-{2-[(3aR,5S,6aS)-2-(2,2,2-trifluoroethyl)-octahydrocyclopenta[c]pyrrol-5-yl]ethoxy}-1H-indol-3-yl)oxane-4-carboxamide] | 200 to 1000
10 | O=C(Nc1c[nH]c2ccc(OCc3ccc(C(F)(F)F)cc3)cc12)C1CC(CO)C1 (stereo not shown) [Compound 153, 3-(hydroxymethyl)-N-(5-((4-(trifluoromethyl)benzyl)oxy)-1H-indol-3-yl)cyclobutane-1-carboxamide] | 200 to 1000
11 | CC1(C(=O)Nc2c[nH]c3ccc(OCc4ccc(C(F)(F)F)cc4)cc23)CCOC1 (stereo not shown) [Compound 154, 3-methyl-N-(5-((4-(trifluoromethyl)benzyl)oxy)-1H-indol-3-yl)tetrahydrofuran-3-carboxamide] | 200 to 1000
12 | CC1(C)CC1C(=O)Nc1c[nH]c2ccc(OCc3ccc(C(F)(F)F)cc3)cc12 (stereo not shown) [Compound 155, 2,2-dimethyl-N-(5-((4-(trifluoromethyl)benzyl)oxy)-1H-indol-3-yl)cyclopropane-1-carboxamide] | 200 to 1000
13 | O=C(Nc1c[nH]c2ccc(OCc3ccc(C(F)(F)F)cc3)cc12)C1CCOCC1 [Compound 156, N-(5-{[4-(trifluoromethyl)phenyl]methoxy}-1H-indol-3-yl)oxane-4-carboxamide] | 200 to 1000
14 | CC(C)(C)CC(=O)Nc1c[nH]c2ccc(O[C@H]3C[C@@H](c4ccc(C(F)(F)F)cc4)C3)cc12 [Compound 157, 3,3-dimethyl-N-(5-(cis-3-(4-(trifluoromethyl)phenyl)cyclobutoxy)-1H-indol-3-yl)butanamide] | 40 to 200
15 | O=C(Nc1c[nH]c2ccc(O[C@H]3C[C@@H](c4ccc(C(F)(F)F)cc4)C3)cc12)C1CC(CO)C1 (stereo partly drawn) [Compound 158, 3-(hydroxymethyl)-N-(5-(cis-3-(4-(trifluoromethyl)phenyl)cyclobutoxy)-1H-indol-3-yl)cyclobutane-1-carboxamide] | 40 to 200
16 | COC1CC(C(=O)Nc2c[nH]c3ccc(O[C@H]4C[C@@H](c5ccc(C(F)(F)F)cc5)C4)cc23)C1 (stereo partly drawn) [Compound 159, 3-methoxy-N-{5-[(1S,3S)-3-[4-(trifluoromethyl)phenyl]cyclobutoxy]-1H-indol-3-yl}cyclobutane-1-carboxamide] | 40 to 200

Row | Compound | EC50 [nM]
17 | CC1(C(=O)Nc2c[nH]c3ccc(OCC[C@@H]4C[C@@H]5CN(CC(F)(F)F)C[C@@H]5C4)cc23)CCCO1 (stereo partly drawn) [Compound 160, 2-methyl-N-(5-(2-((3aR,5r,6aS)-2-(2,2,2-trifluoroethyl)octahydrocyclopenta[c]pyrrol-5-yl)ethoxy)-1H-indol-3-yl)tetrahydrofuran-2-carboxamide] | 200 to 1000
18 | CC1(C(=O)Nc2c[nH]c3ccc(OCC[C@@H]4C[C@@H]5CN(CC(F)(F)F)C[C@@H]5C4)cc23)CCOCC1 [Compound 161, 4-methyl-N-(5-(2-((3aR,5r,6aS)-2-(2,2,2-trifluoroethyl)octahydrocyclopenta[c]pyrrol-5-yl)ethoxy)-1H-indol-3-yl)tetrahydro-2H-pyran-4-carboxamide] | 40 to 200
19 | C[C@H]1C[C@@H](C(=O)Nc2c[nH]c3ccc(OCCc4ccc(C(F)(F)F)cc4)cc23)C1 [Compound 162, cis-3-methyl-N-(5-(4-(trifluoromethyl)phenethoxy)-1H-indol-3-yl)cyclobutane-1-carboxamide] | 40 to 200
20 | O=C(Nc1c[nH]c2ccc(OCCc3ccc(C(F)(F)F)cc3)cc12)C1COC1 [Compound 163, N-(5-(4-(trifluoromethyl)phenethoxy)-1H-indol-3-yl)oxetane-3-carboxamide] | 40 to 200
21 | O=C(Nc1c[nH]c2ccc(CCOc3ccc(C(F)(F)F)cc3)cc12)C1COC1 [Compound 164, N-(5-(2-(4-(trifluoromethyl)phenoxy)ethyl)-1H-indol-3-yl)oxetane-3-carboxamide] | 200 to 1000
22 | CC1(C(=O)Nc2c[nH]c3ccc(CCOc4ccc(C(F)(F)F)cc4)cc23)COC1 [Compound 165, 3-methyl-N-(5-(2-(4-(trifluoromethyl)phenoxy)ethyl)-1H-indol-3-yl)oxetane-3-carboxamide] | 40 to 200
23 | CC1(C(=O)Nc2c[nH]c3ccc(OCc4ccc(C(F)(F)F)cc4)cc23)COC1 [Compound 166, 3-methyl-N-(5-((4-(trifluoromethyl)benzyl)oxy)-1H-indol-3-yl)oxetane-3-carboxamide] | 40 to 200
24 | O=C(Nc1c[nH]c2ccc(CCOc3ccc(C(F)(F)F)nc3)cc12)C1CC1 [Compound 167, N-(5-(2-((6-(trifluoromethyl)pyridin-3-yl)oxy)ethyl)-1H-indol-3-yl)cyclopropanecarboxamide] | 200 to 1000
25 | CCC(=O)Nc1c[nH]c2ccc(CCOc3ccc(C)cc3)cc12 [Compound 168, N-(5-(2-(p-tolyloxy)ethyl)-1H-indol-3-yl)propionamide] | 200 to 1000
26 | CC(=O)Nc1c[nH]c2ccc(OCCc3ccc(S(F)(F)(F)(F)F)cc3)cc12 [Compound 169, N-(5-(4-(pentafluoro-16-sulfaneyl)phenethoxy)-1H-indol-3-yl)acetamide] | 40 to 200
27 | CC(=O)Nc1c[nH]c2ccc(CCOc3ccc(C4CCN(CC(F)(F)F)CC4)cc3)cc12 [Compound 170, N-(5-(2-(4-(1-(2,2,2-trifluoroethyl)piperidin-4-yl)phenoxy)ethyl)-1H-indol-3-yl)acetamide] | 200 to 1000
28 | CC(=O)Nc1c[nH]c2ccc(OCCC3CC4(C3)CN(CC(F)(F)F)C4)cc12 [Compound 171, N-(5-(2-(2-(2,2,2-trifluoroethyl)-2-azaspiro[3.3]heptan-6-yl)ethoxy)-1H-indol-3-yl)acetamide] | 1000 to 5000
29 | CC1(C(=O)Nc2c[nH]c3ccc(C(O)CCc4ccc(C(F)(F)F)cc4)cc23)CC1 (stereo not shown) [Compound 172, N-(5-(1-hydroxy-3-(4-(trifluoromethyl)phenyl)propyl)-1H-indol-3-yl)-1-methylcyclopropane-1-carboxamide] | 200 to 1000
30 | CC(=O)Nc1c[nH]c2cc(Br)c(OCCc3ccc(C(F)(F)F)cc3)cc12 [Compound 173, N-(6-bromo-5-(4-(trifluoromethyl)phenethoxy)-1H-indol-3-yl)acetamide] | 5000 to 100000
31 | CC1(C(=O)Nc2c[nH]c3ccc(CC(O)Cc4ccc(C(F)(F)F)cc4)cc23)CC1 (stereo not shown) [Compound 174, N-(5-(2-hydroxy-3-(4-(trifluoromethyl)phenyl)propyl)-1H-indol-3-yl)-1-methylcyclopropane-1-carboxamide] | 200 to 1000
